Assay results from patent US20230017045A1, “PYRIDINE AND PYRIMIDINE CARBOXYLATE HERBICIDES AND METHODS OF USE THEREOF” (Dow AgroSciences LLC, priority 2017, published 2023).
Read-outs that look alike come from different tables or passages of the source.

Test system: test plant species
Assay: Post-emergent herbicidal activity test (greenhouse, foliar spray, visual growth reduction)
Assay type: in vivo
Details: post-emergence, 336 h, 140 g ai/ha, 14 days after application
How it was run: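 Greenhouse plants at first–second true leaf stage sprayed overhead at 187 L/ha with compound in acetone/water/isopropanol/DMSO/crop oil/X-77 carrier; controls received solvent blank. Injury rated visually after 14 d on a 0–100% scale versus untreated and control plants, converted to growth reduction.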

[1] = ALOMY: blackgrass (Alopecurus myosuroides), read-out: Visual Growth Reduction (%) 14 Days After Application, ALOMY
[2] = AMARE: redroot pigweed (Amaranthus retroflexus), read-out: Visual Growth Reduction (%) 14 Days After Application, AMARE
[3] = AVEFA: wild oat (Avena fatua), read-out: Visual Growth Reduction (%) 14 Days After Application, AVEFA
[4] = CHEAL: lambsquarters (Chenopodium album), read-out: Visual Growth Reduction (%) 14 Days After Application, CHEAL
[5] = CIRAR: canada thistle (Cirsium arvense), read-out: Visual Growth Reduction (%) 14 Days After Application, CIRAR
[6] = CYPES: yellow nutsedge (Cyperus esculentus), read-out: Visual Growth Reduction (%) 14 Days After Application, CYPES
[7] = DIGSA: crabgrass (Digitaria sanguinalis), read-out: Visual Growth Reduction (%) 14 Days After Application, DIGSA
[8] = ECHCG: barnyardgrass (Echinochloa crus-galli), read-out: Visual Growth Reduction (%) 14 Days After Application, ECHCG
[9] = IPOHE: ivy-leaf morning glory (Ipomoea hederacea), read-out: Visual Growth Reduction (%) 14 Days After Application, IPOHE
[10] = KCHSC: kochia (Bassia scoparia), read-out: Visual Growth Reduction (%) 14 Days After Application, KCHSC
[11] = ORYSA: rice (Oryza sativa), read-out: Visual Growth Reduction (%) 14 Days After Application, ORYSA
[12] = SETFA: giant foxtail (Setaria faberi), read-out: Visual Growth Reduction (%) 14 Days After Application, SETFA
[13] = SORVU: grain sorghum (Sorghum vulgare), read-out: Visual Growth Reduction (%) 14 Days After Application, SORVU
[14] = STEME: common chickweed (Stellaria media), read-out: Visual Growth Reduction (%) 14 Days After Application, STEME
[15] = TRZAS: wheat, spring (Triticum aestivum), read-out: Visual Growth Reduction (%) 14 Days After Application, TRZAS

SMILES: O=C(O)c1nc(-c2ccc(C(F)(F)F)nc2)ccc1Cl [F95, 5-Chloro-6′-(trifluoromethyl)-[2,3′-bipyridine]-6-carboxylic acid]
- pest or weed control at 140 g/ha [1]: 0 to 29%
- pest or weed control at 140 g/ha [2]: 0 to 29%
- pest or weed control at 140 g/ha [3]: 0 to 29%
- pest or weed control at 140 g/ha [4]: 0 to 29%
- pest or weed control at 140 g/ha [5]: 0 to 29%
- pest or weed control at 140 g/ha [6]: 0 to 29%
- pest or weed control at 140 g/ha [7]: 0 to 29%
- pest or weed control at 140 g/ha [8]: 0 to 29%
- pest or weed control at 140 g/ha [9]: 45 to 59%
- pest or weed control at 140 g/ha [10]: 0 to 29%
- pest or weed control at 140 g/ha [11]: 0 to 29%
- pest or weed control at 140 g/ha [12]: 0 to 29%
- pest or weed control at 140 g/ha [13]: 0 to 29%
- pest or weed control at 140 g/ha [14]: 0 to 29%
- pest or weed control at 140 g/ha [15]: 0 to 29%

SMILES: COC(=O)c1nc(-c2cc(Cl)c(C#N)cc2Cl)ccc1Cl [F50, Methyl 3-chloro-6-(2,5-dichloro-4-cyanophenyl) picolinate]
- pest or weed control at 140 g/ha [1]: 0 to 29%
- pest or weed control at 140 g/ha [2]: 0 to 29%
- pest or weed control at 140 g/ha [3]: 0 to 29%
- pest or weed control at 140 g/ha [4]: 60 to 74%
- pest or weed control at 140 g/ha [5]: 0 to 29%
- pest or weed control at 140 g/ha [6]: 0 to 29%
- pest or weed control at 140 g/ha [7]: 0 to 29%
- pest or weed control at 140 g/ha [8]: 0 to 29%
- pest or weed control at 140 g/ha [10]: 0 to 29%
- pest or weed control at 140 g/ha [11]: 0 to 29%
- pest or weed control at 140 g/ha [12]: 0 to 29%
- pest or weed control at 140 g/ha [13]: 0 to 29%
- pest or weed control at 140 g/ha [14]: 0 to 29%
- pest or weed control at 140 g/ha [15]: 0 to 29%

SMILES: COC(=O)c1nc(-c2ccc(Cl)c(OC)c2F)c(F)c(Cl)c1Cl [F74, Methyl 3,4-dichloro-6-(4-chloro-2-fluoro-3-methoxyphenyl)-5-fluoropicolinate]
- pest or weed control at 140 g/ha [1]: 0 to 29%
- pest or weed control at 140 g/ha [2]: 0 to 29%
- pest or weed control at 140 g/ha [3]: 0 to 29%
- pest or weed control at 140 g/ha [4]: 30 to 44%
- pest or weed control at 140 g/ha [5]: 0 to 29%
- pest or weed control at 140 g/ha [6]: 0 to 29%
- pest or weed control at 140 g/ha [7]: 0 to 29%
- pest or weed control at 140 g/ha [8]: 0 to 29%
- pest or weed control at 140 g/ha [9]: 0 to 29%
- pest or weed control at 140 g/ha [11]: 0 to 29%
- pest or weed control at 140 g/ha [12]: 0 to 29%
- pest or weed control at 140 g/ha [13]: 0 to 29%
- pest or weed control at 140 g/ha [14]: 0 to 29%
- pest or weed control at 140 g/ha [15]: 0 to 29%
